pIC50: −log10 of the molar value. Where a SMILES comes first, the peptide text is derived from it. [ ]: non-standard residue; d: D form. The star is where a group is joined. Sta = CC(C)C[C@H](N)[C@@H](O)CC(=O)O; Isovaleryl = CC(C)CC(=O)*
Legend:
[1] = target: T1, Plasmodium falciparum plasmepsin V (PfPMV) (Plasmodium falciparum, UniProt Q8I6Z5); assay: casein proteolysis assay with recombinant enzyme (A280); type: biochemical
T1 construct: gene PMV; Trx-PfPMVp37

[2] = target: T1, Plasmodium falciparum plasmepsin V (PfPMV); assay: casein proteolysis assay with recombinant enzyme (A280), Lineweaver-Burk kinetics; type: biochemical

T1 sequence (Q8I6Z5 whole entry): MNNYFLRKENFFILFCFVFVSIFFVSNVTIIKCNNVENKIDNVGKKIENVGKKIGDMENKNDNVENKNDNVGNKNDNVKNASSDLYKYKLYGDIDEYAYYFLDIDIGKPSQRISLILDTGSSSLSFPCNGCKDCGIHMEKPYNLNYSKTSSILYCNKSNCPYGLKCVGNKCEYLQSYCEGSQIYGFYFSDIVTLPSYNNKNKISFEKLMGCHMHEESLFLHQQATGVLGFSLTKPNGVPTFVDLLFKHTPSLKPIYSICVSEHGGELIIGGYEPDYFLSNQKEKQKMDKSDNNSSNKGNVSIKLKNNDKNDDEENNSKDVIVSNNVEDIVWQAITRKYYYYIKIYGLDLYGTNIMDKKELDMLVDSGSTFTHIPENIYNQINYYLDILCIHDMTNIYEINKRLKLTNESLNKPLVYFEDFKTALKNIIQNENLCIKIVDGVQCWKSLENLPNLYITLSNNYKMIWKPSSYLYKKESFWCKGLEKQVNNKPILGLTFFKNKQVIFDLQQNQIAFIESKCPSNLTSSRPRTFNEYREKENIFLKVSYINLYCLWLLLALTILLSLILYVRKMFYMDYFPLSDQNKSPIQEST

SMILES | pIC50 [1] | pIC50 [2]
CC(C)CC(=O)N[C@H](C(=O)N[C@H](C(=O)N[C@@H](CC(C)C)[C@@H](O)CC(=O)N[C@@H](C)C(=O)N[C@@H](CC(C)C)[C@@H](O)CC(=O)O)C(C)C)C(C)C [pepstatin] (Isovaleryl-VV[Sta]A[Sta]-OH) | 4.20 | 
O=c1c(O)c(-c2ccc(O)cc2)oc2cc(O)cc(O)c12 [kaempferol] |  | 4.65
CC(C)=CC[C@@H](O)C1=CC(=O)c2c(O)ccc(O)c2C1=O [shikonin] |  | 4.36
O=c1c(O)c(-c2ccc(O)c(O)c2)oc2cc(O)cc(O)c12 [quercetin] |  | 4.27
